Tests used:
[1] = biological target: T1, α4β1 integrin (Homo sapiens, UniProt P05556+P13612); assay: Antagonism of binding of CS1 peptide to α4β1 integrin (calcein-labelled Ramos cell adhesion to biotinylated CS1 plate); assay type: cell-based; conditions: Ramos cells
T1 construct: Harvested Ramos cells; endogenous in cells; host or cells: Ramos cells
Method: In brief, 100 μL/well of a solution of biotinylated CS1 peptide (1 mg/100 mL of phosphate buffered saline (PBS)) was incubated in a NeutrAvidin plate (Pierce) for 1 h at room temperature. The plate was then washed 3× with distilled water and treated with 200 μL of blocking buffer (3% BSA in PBS) for at least 4 h. Blocked plates were washed as above. Harvested Ramos cells (10^7/mL) were resuspended in PBS containing 10 μL of calcein AM/mL and incubated 30 min in the dark. This suspension was diluted with 45 mL PBS and the cells harvested by centrifugation and aspiration. The cells were resuspended in binding buffer (˜5×10^5/mL). If cell lysis was to be monitored ethidium homodimer was added to the buffer to a final concentration of 5 μM. A solution (10 μL) of compound to be tested or control peptide was added to appropriate wells followed by 90 μL of the cell suspension. The plate was incubated at 37° C. for 1 h. […] Otherwise, the plate was washed 3×, 50 μL of lysis buffer was added to each well, the plate rocked in the dark for 10 min, and the fluorescence monitored at 485 nm excitation and 535 nm emission.

[2] = biological target: neurokinin-1 receptor (Homo sapiens, UniProt P25103); assay: Tachykinin antagonism assay: inhibition of Substance P-induced calcium mobilization (FLIPR) in U373 MG cells; assay type: cell-based; conditions: Substance P 1 nM
Method: An assay measuring the ability of compounds 1–50 to antagonize binding of substance P peptide to its receptor neurokinin-1 was performed. Substance P is known to act upon cells via the mobilization of calcium (Bordey et al., Glia 11: 277–283, 1994). The compounds were assessed for their ability to inhibit the action of Substance P with the use of a Fluorescent Imaging Plate Reader (FLIPR) from Molecular Devices (Shroeder et al., J. Biomol. Screening 1: 75–80, 1996; U.S. Pat. No. 5,112,134; U.S. Pat. No. 4,968,148). […] This dye is similar to Fluo-3, Fluo-4, and Calcium Green dyes used by other researchers (Lin et al., Biotechniques 26: 318–326, 1999) in that it increases in fluorescence in the presence of calcium; the Molecular Devices version is preferable because the cells need not be washed following staining with the dye. […] Substance P was added in Hank's salt solution with 1% BSA to give a final concentration of 1 nM and the resultant change in fluorescence intensity was monitored for thirty seconds with an excitation wavelength of 480 nm and an emission of 515 nm. Some wells were maintained as controls which were not incubated with any compound, and the peak fluorescence readings resulting from the wells which received compounds were compared to these control wells in order to determine the degree of inhibition.

T1 sequence (P13612 34-1032): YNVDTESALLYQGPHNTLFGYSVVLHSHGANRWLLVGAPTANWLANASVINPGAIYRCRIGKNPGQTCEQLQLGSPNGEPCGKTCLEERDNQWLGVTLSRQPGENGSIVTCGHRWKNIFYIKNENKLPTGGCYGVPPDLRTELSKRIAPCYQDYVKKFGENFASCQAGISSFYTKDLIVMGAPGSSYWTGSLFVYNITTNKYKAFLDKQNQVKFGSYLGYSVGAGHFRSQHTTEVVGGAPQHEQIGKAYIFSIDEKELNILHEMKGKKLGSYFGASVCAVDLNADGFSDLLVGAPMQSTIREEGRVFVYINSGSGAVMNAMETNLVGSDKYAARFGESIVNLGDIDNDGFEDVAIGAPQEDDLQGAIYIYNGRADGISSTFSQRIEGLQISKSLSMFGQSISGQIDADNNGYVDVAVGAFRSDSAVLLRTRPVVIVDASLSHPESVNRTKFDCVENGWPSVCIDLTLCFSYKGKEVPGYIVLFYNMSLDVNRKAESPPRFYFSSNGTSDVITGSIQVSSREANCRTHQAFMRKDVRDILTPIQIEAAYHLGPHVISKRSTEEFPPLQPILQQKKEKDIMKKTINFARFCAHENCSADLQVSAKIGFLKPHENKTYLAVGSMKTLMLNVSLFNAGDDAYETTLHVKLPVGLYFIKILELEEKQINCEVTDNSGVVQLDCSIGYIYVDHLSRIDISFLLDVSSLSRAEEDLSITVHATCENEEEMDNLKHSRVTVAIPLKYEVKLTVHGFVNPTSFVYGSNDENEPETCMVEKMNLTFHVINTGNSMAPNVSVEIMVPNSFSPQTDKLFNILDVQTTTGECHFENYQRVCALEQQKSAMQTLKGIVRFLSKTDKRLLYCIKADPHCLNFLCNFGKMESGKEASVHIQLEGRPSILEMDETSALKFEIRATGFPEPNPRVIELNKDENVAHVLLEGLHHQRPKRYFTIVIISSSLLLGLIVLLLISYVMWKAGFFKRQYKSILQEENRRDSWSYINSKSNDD
T1 sequence (P05556 21-798): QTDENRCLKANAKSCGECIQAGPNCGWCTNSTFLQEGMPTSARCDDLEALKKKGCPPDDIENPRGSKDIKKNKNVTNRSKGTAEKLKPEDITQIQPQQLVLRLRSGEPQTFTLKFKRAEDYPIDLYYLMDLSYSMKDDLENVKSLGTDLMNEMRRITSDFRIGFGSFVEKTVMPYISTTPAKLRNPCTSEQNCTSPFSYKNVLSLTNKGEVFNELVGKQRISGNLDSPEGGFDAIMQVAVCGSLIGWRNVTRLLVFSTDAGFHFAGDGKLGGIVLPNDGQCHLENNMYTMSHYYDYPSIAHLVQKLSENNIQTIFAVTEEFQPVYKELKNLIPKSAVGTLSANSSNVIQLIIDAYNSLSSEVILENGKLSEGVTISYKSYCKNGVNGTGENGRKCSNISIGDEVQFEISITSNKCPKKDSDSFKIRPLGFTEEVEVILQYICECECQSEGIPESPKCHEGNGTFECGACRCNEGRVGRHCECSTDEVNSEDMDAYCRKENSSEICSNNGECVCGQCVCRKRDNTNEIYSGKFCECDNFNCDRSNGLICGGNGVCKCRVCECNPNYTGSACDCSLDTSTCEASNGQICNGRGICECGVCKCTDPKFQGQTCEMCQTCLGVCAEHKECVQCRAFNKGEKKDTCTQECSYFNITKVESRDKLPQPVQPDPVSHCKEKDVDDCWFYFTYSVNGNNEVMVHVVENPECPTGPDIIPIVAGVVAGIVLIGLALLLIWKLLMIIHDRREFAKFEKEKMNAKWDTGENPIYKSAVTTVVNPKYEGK
Chain of neurokinin-1 receptor (P25103 whole entry): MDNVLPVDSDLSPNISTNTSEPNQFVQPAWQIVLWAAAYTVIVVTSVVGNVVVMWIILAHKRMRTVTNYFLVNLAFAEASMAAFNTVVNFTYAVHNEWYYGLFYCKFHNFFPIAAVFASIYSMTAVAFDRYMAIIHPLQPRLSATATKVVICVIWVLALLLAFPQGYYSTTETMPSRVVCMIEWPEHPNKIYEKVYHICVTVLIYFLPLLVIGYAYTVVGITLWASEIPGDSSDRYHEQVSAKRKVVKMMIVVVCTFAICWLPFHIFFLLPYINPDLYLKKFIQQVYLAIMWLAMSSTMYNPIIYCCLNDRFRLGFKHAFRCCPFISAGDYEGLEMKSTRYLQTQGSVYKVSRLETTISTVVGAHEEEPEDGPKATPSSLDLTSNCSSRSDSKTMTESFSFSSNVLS

Row | inhibition at 100 µM [1] | inhibition at 20 µM [2] | Structure (SMILES)
1 | > 50% | > 25% | CC12OC(=O)[C@H](Cc3ccccc3)N1C(=O)[C@H]1CCCN1C2=O (stereo partly drawn) [Compound 45]
2 | > 50% |  | O=C1C[C@H](Cc2ccccc2)N2C(=O)[C@H](Cc3ccc(O)cc3)N(CC3CCCCC3)C(=O)C2O1 (stereo partly drawn) [Compound 47]
